Reference: paper PMC12250302, “Synthesis, Antimicrobial Activities, and Model of Action of Novel Tetralone Derivatives Containing Aminoguanidinium Moiety” (International Journal of Molecular Sciences, 2025)
≈ marks a conversion by molar mass, not a printed value. Read-outs that look alike come from different tables or passages of the source.

Legend:
Experiment in all cases: MIC and MBC testing, broth microdilution
[1] = system: K. pneumoniae ATCC 700603; format: cell-based, Klebsiella pneumoniae; details: Klebsiella pneumoniae; for MIC: ATCC700603, 18 h, read-out: MIC; for MBC: ATCC700603, read-out: MBC
Description: (§1) The minimum inhibitory concentrations (MICs) and minimum bactericidal concentrations (MBCs) of the synthesized compounds effective against ESKAPE strains, S. aureus clinical isolates, and MRSA were investigated by the broth dilution method. Levofloxacin is a broad-spectrum antibacterial agent that is widely used in the treatment of ESKAPE infections. Therefore, levofloxacin was selected as the positive control for the preliminary activity screening. DMSO (0.1%) was selected as the negative control.
(§2) The minimum inhibitory concentration (MIC) of all synthesized compounds was tested by the broth microdilution method. In brief, compounds dissolved in DMSO were diluted twice continuously in a 96-well plate with MH broth. The ESKAPE pathogens (E. coli ATCC 25922, S. aureus ATCC 29213, K. pneumoniae ATCC 700603, A. baumannii ATCC 19606, P. aeruginosa ATCC 27853, and E. faecium ATCC 35667), clinical S. aureus isolates (LMY45, LMY46, LMY47, and LMY48) and methicillin-resistant Staphylococcus aureus (MRSA-1 and MRSA-2) were cultured in MH broth to logarithmic growth phase and then diluted to 1 × 10^6 CFU/mL in MH broth. Subsequently, the diluted bacterial solution was mixed with the diluted compound solution in a 96-well plate and incubated at 37 °C for a duration of 18 h. The MIC of the compounds was recorded as the lowest concentration at which no visible growth was observed. […] Each concentration was replicated thrice.

[2] = system: P. aeruginosa ATCC 27853; format: cell-based, Pseudomonas aeruginosa
Description: as §1, §2

[3] = system: S. aureus ATCC 29213; format: cell-based, Staphylococcus aureus; details: S. aureus ATCC 29213; for MIC: 18 h
Description: as §1, §2

[4] = system: E. coli ATCC 25922; format: cell-based, Escherichia coli
Description: as §1, §2

[5] = system: clinical S. aureus isolate LMY48; format: cell-based, Staphylococcus aureus; details: LMY48; for MIC: 18 h
Method: (§3) Furthermore, the MBC values of the compounds were detected.
as §2, with “h.” for “h. The MIC of the compounds was recorded as the lowest concentration at which no visible growth was observed.”

[6] = system: MRSA-1; format: cell-based, Staphylococcus aureus; details: MRSA-1; for MIC: 18 h
Method: as §3
as §2, with “h.” for “h. The MIC of the compounds was recorded as the lowest concentration at which no visible growth was observed.”

[7] = system: MRSA-2; format: cell-based, Staphylococcus aureus; details: MRSA-2; for MIC: 18 h
Method: as §3
as §2, with “h.” for “h. The MIC of the compounds was recorded as the lowest concentration at which no visible growth was observed.”

[8] = system: clinical S. aureus isolate LMY45; format: cell-based, Staphylococcus aureus; details: LMY45; for MIC: 18 h
Method: as §3
as §2, with “h.” for “h. The MIC of the compounds was recorded as the lowest concentration at which no visible growth was observed.”

[9] = system: clinical S. aureus isolate LMY47; format: cell-based, Staphylococcus aureus; details: LMY47; for MIC: 18 h
Method: as §3
as §2, with “h.” for “h. The MIC of the compounds was recorded as the lowest concentration at which no visible growth was observed.”

[10] = system: clinical S. aureus isolate LMY46; format: cell-based, Staphylococcus aureus; details: LMY46; for MIC: 18 h
Method: as §3
as §2, with “h.” for “h. The MIC of the compounds was recorded as the lowest concentration at which no visible growth was observed.”

[11] = system: A. baumannii ATCC 19606; format: cell-based, Acinetobacter baumannii
Description: as §1, §2

[12] = system: E. faecium ATCC 35667; format: cell-based, Enterococcus faecium; details: E. faecium ATCC 35667; for MIC: 18 h
Description: as §1, §2

[13] = Pseudomonas aeruginosa, ATCC27853, 18 h, read-out: MIC
[14] = Staphylococcus aureus, ATCC29213, read-out: MIC
[15] = Staphylococcus aureus, ATCC29213, read-out: MBC
[16] = Escherichia coli, ATCC25922, 18 h, read-out: MIC
[17] = Escherichia coli, ATCC25922, read-out: MBC
[18] = Staphylococcus aureus, read-out: MIC
[19] = Staphylococcus aureus, read-out: MBC
[20] = Acinetobacter baumannii, ATCC19606, 18 h, read-out: MIC
[21] = Acinetobacter baumannii, ATCC19606, read-out: MBC
[22] = Enterococcus faecium, ATCC35667, read-out: MIC
[23] = Enterococcus faecium, ATCC35667, read-out: MBC

Compound: [H]/N=C(\N)NN=C1CCCc2cc(OCc3cc(F)ccc3F)ccc21 [Compound 1E, (E)-2-(6-((2,5-difluorobenzyl)oxy)-3,4-dihydronaphthalen-1(2H)-ylidene)hydrazine-1-carboximidamide]
- MIC [1]: 32 µg/mL (≈ 92.9 µM)
- MBC [1]: 32 µg/mL (≈ 92.9 µM)
- MIC [2, 13]: > 32 µg/mL
- MIC [3, 14]: 2 µg/mL (≈ 5.81 µM)
- MBC [3, 15]: 16 µg/mL (≈ 46.5 µM)
- MIC [4, 16]: 8 µg/mL (≈ 23.2 µM)
- MBC [4, 17]: 8 µg/mL (≈ 23.2 µM)
- MIC [5, 18]: 2 µg/mL (≈ 5.81 µM)
- MBC [5, 19]: 2 µg/mL (≈ 5.81 µM)
- MIC [6, 18]: 2 µg/mL (≈ 5.81 µM)
- MBC [6, 19]: 32 µg/mL (≈ 92.9 µM)
- MIC [7, 18]: 2 µg/mL (≈ 5.81 µM)
- MBC [7, 19]: 8 µg/mL (≈ 23.2 µM)
- MIC [8, 18]: 2 µg/mL (≈ 5.81 µM)
- MBC [8, 19]: 4 µg/mL (≈ 11.6 µM)
- MIC [9, 18]: 2 µg/mL (≈ 5.81 µM)
- MBC [9, 19]: 8 µg/mL (≈ 23.2 µM)
- MIC [10, 18]: 2 µg/mL (≈ 5.81 µM)
- MBC [10, 19]: 8 µg/mL (≈ 23.2 µM)
- MIC [11, 20]: 8 µg/mL (≈ 23.2 µM)
- MBC [11, 21]: 8 µg/mL (≈ 23.2 µM)
- MIC [12, 22]: 4 µg/mL (≈ 11.6 µM)
- MBC [12, 23]: 16 µg/mL (≈ 46.5 µM)

Compound: [H]/N=C(\N)NN=C1CCCc2cc(OCc3c(F)cccc3F)ccc21 [Compound 1F, (E)-2-(6-((2,6-difluorobenzyl)oxy)-3,4-dihydronaphthalen-1(2H)-ylidene)hydrazine-1-carboximidamide]
- MIC [1]: 32 µg/mL (≈ 92.9 µM)
- MBC [1]: 32 µg/mL (≈ 92.9 µM)
- MIC [2, 13]: > 32 µg/mL
- MIC [3, 14]: 4 µg/mL (≈ 11.6 µM)
- MBC [3, 15]: 16 µg/mL (≈ 46.5 µM)
- MIC [4, 16]: 16 µg/mL (≈ 46.5 µM)
- MBC [4, 17]: 16 µg/mL (≈ 46.5 µM)
- MIC [5, 18]: 4 µg/mL (≈ 11.6 µM)
- MBC [5, 19]: 16 µg/mL (≈ 46.5 µM)
- MIC [6, 18]: 4 µg/mL (≈ 11.6 µM)
- MBC [6, 19]: 32 µg/mL (≈ 92.9 µM)
- MIC [7, 18]: 4 µg/mL (≈ 11.6 µM)
- MBC [7, 19]: 16 µg/mL (≈ 46.5 µM)
- MIC [8, 18]: 4 µg/mL (≈ 11.6 µM)
- MBC [8, 19]: 8 µg/mL (≈ 23.2 µM)
- MIC [9, 18]: 4 µg/mL (≈ 11.6 µM)
- MBC [9, 19]: 8 µg/mL (≈ 23.2 µM)
- MIC [10, 18]: 4 µg/mL (≈ 11.6 µM)
- MBC [10, 19]: > 32 µg/mL
- MIC [11, 20]: 16 µg/mL (≈ 46.5 µM)
- MBC [11, 21]: 16 µg/mL (≈ 46.5 µM)
- MIC [12, 22]: 8 µg/mL (≈ 23.2 µM)
- MBC [12, 23]: 16 µg/mL (≈ 46.5 µM)

Compound: C[C@H]1COc2c(N3CCN(C)CC3)c(F)cc3c(=O)c(C(=O)O)cn1c23 [Levofloxacin, reference compound]
- MIC [1]: ≤ 1 µg/mL
- MBC [1]: 4 µg/mL (≈ 11.1 µM)
- MIC [2, 13]: ≤ 1 µg/mL
- MBC ([2]; Pseudomonas aeruginosa, ATCC27853, read-out: MBC): 2 µg/mL (≈ 5.53 µM)
- MIC [3, 14]: ≤ 1 µg/mL
- MBC [3, 15]: ≤ 1 µg/mL
- MIC [4, 16]: ≤ 1 µg/mL
- MBC [4, 17]: ≤ 1 µg/mL
- MIC [11, 20]: ≤ 1 µg/mL
- MBC [11, 21]: 2 µg/mL (≈ 5.53 µM)
- MIC [12, 22]: ≤ 1 µg/mL
- MBC [12, 23]: 2 µg/mL (≈ 5.53 µM)

Compound: (E)-2-(6-(4-isopropylphenoxy)-3,4-dihydronaphthalen-1(2H)-ylidene)hydrazine-1-carboximidamide [Compound 1X]
- MBC [2]: > 32 µg/mL
- MIC ([2]; 18 h): 32 µg/mL
- MBC [3]: 4 µg/mL
- MIC [3]: 2 µg/mL
- MBC [4]: 8 µg/mL
- MIC ([4]; 18 h): 4 µg/mL
- MBC [5]: 8 µg/mL
- MIC [5]: 2 µg/mL
- MBC [6]: 8 µg/mL
- MIC [6]: 4 µg/mL
- MBC [7]: 4 µg/mL
- MIC [7]: 1 µg/mL
- MBC [8]: 4 µg/mL
- MIC [8]: 2 µg/mL
- MBC [9]: 8 µg/mL
- MIC [9]: 2 µg/mL
- MBC [10]: 2 µg/mL
- MIC [10]: 2 µg/mL
- MBC [11]: 8 µg/mL
- MIC ([11]; 18 h): 4 µg/mL
- MBC [12]: 4 µg/mL
- MIC [12]: 2 µg/mL
